Assays:
[1] = wn = mass fraction of the nth substance listed; settings: 101 kPa, Liquid
[2] = mn = molality of the nth substance listed, in mol/kg; settings: 101 kPa, Liquid

CO [methanol] + O
[1]
Settings	mass density, 298.15 K [kg/m3]	mass density, 308.15 K [kg/m3]	mass density, 318.15 K [kg/m3]	mass density, 323.15 K [kg/m3]	viscosity, 298.15 K [mPa·s]	viscosity, 308.15 K [mPa·s]	viscosity, 318.15 K [mPa·s]	viscosity, 323.15 K [mPa·s]
w1 = 0.0806	982.97	979.73	976.04	974.38	1.084	0.8665	0.7017	0.6375
w1 = 0.1647	969.63	966.32	961.62	958.75	1.311	1.022	0.8075	0.73
w1 = 0.2526	956.2	951.6	946.26	943.31	1.471	1.142	0.8957	0.8052
w1 = 0.3446	939.57	933.64	931.4	928	1.448	1.203	0.9309	0.8288

CCCCCCCCCCCCOS(=O)(=O)[O-].[Na+] [sodium dodecyl sulfate] + O
[2]
Settings	mass density [kg/m3]
298.15 K, m1 = 0.03036	998.33
298.15 K, m1 = 0.04026	998.74
298.15 K, m1 = 0.04734	999.03
298.15 K, m1 = 0.05935	999.5
298.15 K, m1 = 0.0771	1000.24
298.15 K, m1 = 0.08753	1000.63
298.15 K, m1 = 0.0992	1001.07
298.15 K, m1 = 0.1159	1001.71
308.15 K, m1 = 0.03046	995.13
308.15 K, m1 = 0.0404	995.48
308.15 K, m1 = 0.04749	995.73
308.15 K, m1 = 0.05955	996.13
308.15 K, m1 = 0.07737	996.76
308.15 K, m1 = 0.08785	997.09
308.15 K, m1 = 0.09957	997.46
308.15 K, m1 = 0.1163	997.99
318.15 K, m1 = 0.03059	991.17
318.15 K, m1 = 0.04056	991.47
318.15 K, m1 = 0.04769	991.69
318.15 K, m1 = 0.0598	992.03
318.15 K, m1 = 0.07771	992.57
318.15 K, m1 = 0.08824	992.85
318.15 K, m1 = 0.1	993.17
318.15 K, m1 = 0.1169	993.63
323.15 K, m1 = 0.03066	988.91
323.15 K, m1 = 0.04066	989.19
323.15 K, m1 = 0.0478	989.39
323.15 K, m1 = 0.05995	989.71
323.15 K, m1 = 0.0779	990.21
323.15 K, m1 = 0.08845	990.47
323.15 K, m1 = 0.1003	990.76
323.15 K, m1 = 0.1172	991.18

From the NIST ThermoML archive (doi:10.1021/je2003622)
